From ChEMBL document CHEMBL4680324, “Discovery of natural product ellagic acid as a potent CD73 and CD39 dual inhibitor” (Bioorg Med Chem Lett, 2021)
pIC50: −log10 of the molar value.

Tests used:
5'-nucleotidase [1] = molecular target: 5'-nucleotidase (Homo sapiens, UniProt P21589); assay: Inhibition of human CD73
5'-nucleotidase [2] = molecular target: T1, 5'-nucleotidase (Mus musculus, UniProt Q61503); assay: Inhibition of mouse CD73
T1 sequence (Q61503 whole entry): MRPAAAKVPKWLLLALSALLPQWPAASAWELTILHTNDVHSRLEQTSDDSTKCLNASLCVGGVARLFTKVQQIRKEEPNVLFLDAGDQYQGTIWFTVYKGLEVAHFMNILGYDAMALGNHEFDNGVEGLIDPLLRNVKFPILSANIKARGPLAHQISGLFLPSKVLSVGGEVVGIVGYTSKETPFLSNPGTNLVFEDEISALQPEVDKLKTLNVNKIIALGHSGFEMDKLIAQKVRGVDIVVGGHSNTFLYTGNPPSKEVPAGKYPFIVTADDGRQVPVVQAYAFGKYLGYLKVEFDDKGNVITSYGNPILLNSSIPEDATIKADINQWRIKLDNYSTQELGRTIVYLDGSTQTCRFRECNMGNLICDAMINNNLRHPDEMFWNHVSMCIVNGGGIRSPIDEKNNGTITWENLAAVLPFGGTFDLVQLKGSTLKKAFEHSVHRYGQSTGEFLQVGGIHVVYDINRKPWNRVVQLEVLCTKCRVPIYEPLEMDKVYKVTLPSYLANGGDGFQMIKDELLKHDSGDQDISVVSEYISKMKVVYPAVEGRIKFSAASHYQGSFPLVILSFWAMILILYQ

[3] = molecular target: T2, Ectonucleoside triphosphate diphosphohydrolase 1 (Mus musculus, UniProt P55772); assay: Inhibition of mouse CD39
T2 sequence (P55772 whole entry): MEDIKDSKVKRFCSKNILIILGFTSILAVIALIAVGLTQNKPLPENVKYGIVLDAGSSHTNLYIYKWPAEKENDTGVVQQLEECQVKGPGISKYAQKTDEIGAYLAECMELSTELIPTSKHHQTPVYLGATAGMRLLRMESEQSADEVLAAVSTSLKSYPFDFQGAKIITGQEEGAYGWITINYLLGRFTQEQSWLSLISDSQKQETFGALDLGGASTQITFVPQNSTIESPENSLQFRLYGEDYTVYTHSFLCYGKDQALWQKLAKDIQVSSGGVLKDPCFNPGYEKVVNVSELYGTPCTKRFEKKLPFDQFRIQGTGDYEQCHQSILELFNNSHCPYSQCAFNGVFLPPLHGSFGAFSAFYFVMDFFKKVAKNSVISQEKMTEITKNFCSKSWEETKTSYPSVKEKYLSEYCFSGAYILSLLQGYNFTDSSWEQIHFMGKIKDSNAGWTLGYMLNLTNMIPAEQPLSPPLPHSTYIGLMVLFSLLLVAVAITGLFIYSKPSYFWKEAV

MDA-MB-231 = assay: Cytotoxicity against human MDA-MB-231 cells expressing CD73 assessed as reduction in cell viability by CCK8 assay; format: functional, cell-based
MIA PaCa-2 = assay: Cytotoxicity against human MIA PaCa-2 cells expressing CD73 assessed as reduction in cell viability by CCK8 assay; format: functional, cell-based
[4] = Selectivity ratio of IC50 for inhibition of human CD73 to IC50 for inhibition of mouse CD73
[5] = Selectivity ratio of IC50 for inhibition of human CD73 to IC50 for inhibition of mouse CD39

5'-nucleotidase (Homo sapiens, UniProt P21589), sequence (P21589 whole entry): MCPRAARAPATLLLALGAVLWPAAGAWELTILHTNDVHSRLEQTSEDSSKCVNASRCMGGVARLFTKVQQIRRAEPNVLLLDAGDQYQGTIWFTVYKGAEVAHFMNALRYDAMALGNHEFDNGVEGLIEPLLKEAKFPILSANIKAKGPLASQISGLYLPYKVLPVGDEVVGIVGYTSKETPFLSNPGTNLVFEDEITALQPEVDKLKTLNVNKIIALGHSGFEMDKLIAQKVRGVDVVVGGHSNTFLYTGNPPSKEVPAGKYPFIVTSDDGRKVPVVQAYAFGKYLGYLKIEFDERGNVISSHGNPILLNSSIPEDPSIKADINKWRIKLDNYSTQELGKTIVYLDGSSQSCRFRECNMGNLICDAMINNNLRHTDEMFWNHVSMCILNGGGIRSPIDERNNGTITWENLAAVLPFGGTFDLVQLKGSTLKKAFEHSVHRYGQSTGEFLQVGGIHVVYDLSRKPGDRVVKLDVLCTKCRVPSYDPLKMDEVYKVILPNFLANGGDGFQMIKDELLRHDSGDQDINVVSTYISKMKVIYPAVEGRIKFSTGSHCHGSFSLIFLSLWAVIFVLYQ

SMILES	pIC50 (5'-nucleotidase [1])	pIC50 (5'-nucleotidase [2])	pIC50 [3]	pIC50 (MDA-MB-231)	pIC50 (MIA PaCa-2)	Ratio IC50 [4]	Ratio IC50 [5]
C=C(C)[C@@H]1CC[C@]2(CO)CC[C@]3(C)[C@H](CC[C@@H]4[C@@]5(C)CC[C@H](O)C(C)(C)[C@@H]5CC[C@]43C)[C@@H]12 [BETULIN]	4.64	4.30	4.30	4.61	4.02	–	–
O=c1oc2c(O)c(O)cc3c(=O)oc4c(O)c(O)cc1c4c23 [ELLAGIC ACID]	5.73	7.40	6.30	4.56	3.82	46.5	3.7
Nc1ccn([C@@H]2O[C@H](CO)[C@@H](O)C2(F)F)c(=O)n1 [GEMCITABINE]	–	–	–	5.94	6.64	–	–
O=C(OC[C@H]1O[C@@H](OC(=O)c2cc(O)c(O)c(O)c2)[C@H](OC(=O)c2cc(O)c(O)c(O)c2)[C@@H](OC(=O)c2cc(O)c(O)c(O)c2)[C@@H]1OC(=O)c1cc(O)c(O)c(O)c1)c1cc(O)c(O)c(O)c1 [PENTAGALLOYL GLUCOSE]	4.98	< 4.00	5.81	5.04	4.14	–	–
Nc1ncnc2c1ncn2[C@@H]1O[C@H](COP(=O)(O)CP(=O)(O)O)[C@@H](O)[C@H]1O [PHOSPHOMETHYLPHOSPHONIC ACID ADENOSYL ESTER]	5.40	5.33	< 4.00	–	–	–	–
